Results from patent US12617785B2, “Pyrrolo[2,3-b]pyridine-3-carboxamide compositions and methods for ameliorating hearing loss” (priority 2020, dated 2026).
Where a name gives a salt, the structure may show the parent alone.

Assays:
Lats1 [1] = biological target: T1, Lats1 (Homo sapiens, UniProt O95835); test: In vitro kinase assay (HTRF KinEASE-STK S1) Lats1, 2 mM ATP; format: biochemical
T1 construct: purchased Carna 01-123
T1 sequence (O95835 1-1130): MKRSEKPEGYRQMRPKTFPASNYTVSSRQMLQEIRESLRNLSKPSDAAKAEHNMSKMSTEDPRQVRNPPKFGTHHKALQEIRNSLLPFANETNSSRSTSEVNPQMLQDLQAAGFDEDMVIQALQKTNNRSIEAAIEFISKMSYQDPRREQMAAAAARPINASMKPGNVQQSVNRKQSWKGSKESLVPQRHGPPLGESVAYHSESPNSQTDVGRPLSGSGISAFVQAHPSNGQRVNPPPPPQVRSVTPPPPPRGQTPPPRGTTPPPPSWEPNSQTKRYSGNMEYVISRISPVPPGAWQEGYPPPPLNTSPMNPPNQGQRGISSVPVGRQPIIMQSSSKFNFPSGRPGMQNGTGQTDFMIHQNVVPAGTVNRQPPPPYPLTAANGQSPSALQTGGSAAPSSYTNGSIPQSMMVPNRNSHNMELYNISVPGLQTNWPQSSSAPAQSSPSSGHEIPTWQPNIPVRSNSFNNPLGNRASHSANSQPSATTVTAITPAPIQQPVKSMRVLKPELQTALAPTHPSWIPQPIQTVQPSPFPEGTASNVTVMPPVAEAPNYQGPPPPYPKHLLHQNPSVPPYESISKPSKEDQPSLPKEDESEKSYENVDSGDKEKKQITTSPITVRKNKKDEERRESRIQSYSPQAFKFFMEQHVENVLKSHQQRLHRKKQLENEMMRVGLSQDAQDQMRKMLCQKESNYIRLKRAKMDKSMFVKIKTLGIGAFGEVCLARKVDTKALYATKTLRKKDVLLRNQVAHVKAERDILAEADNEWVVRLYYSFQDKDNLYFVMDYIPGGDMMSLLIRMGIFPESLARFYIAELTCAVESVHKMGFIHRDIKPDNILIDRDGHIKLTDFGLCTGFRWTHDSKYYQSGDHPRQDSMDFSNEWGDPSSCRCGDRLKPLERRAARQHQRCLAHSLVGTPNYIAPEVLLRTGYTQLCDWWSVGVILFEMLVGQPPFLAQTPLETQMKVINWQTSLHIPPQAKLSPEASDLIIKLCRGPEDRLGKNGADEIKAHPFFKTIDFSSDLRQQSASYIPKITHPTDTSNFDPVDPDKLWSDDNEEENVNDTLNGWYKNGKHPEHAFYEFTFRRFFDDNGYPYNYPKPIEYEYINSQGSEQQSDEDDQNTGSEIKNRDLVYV
Description: (§1) Reactions were conducted with 10 μM STK1 substrate and 10 μM ATP or 2 mM ATP as shown below. […] The enzyme, substrate, ATP, and test compound of the invention were combined in a low-volume 384-well plate and shaken for 50 min at room temperature, unless otherwise indicated. The reaction was stopped by adding the detection reagents, which were prepared at an 8:1 biotin:streptavidin ratio and shaking for 60 min at room temperature. All reactions were conducted in triplicate and a Synergy NEO (Biotek) was used to detect the signal.
Assay was carried out in a 384 well plate. Each drug dosage curve was done with 16 points of 3-fold dilutions in 100% DMSO, and triplicate.

Lats1 [2] = biological target: T1, Lats1; test: In vitro kinase assay (HTRF KinEASE-STK S1) Lats1, 10 uM ATP; format: biochemical
Description: IVKA assay at 10 uM method:
as §1

[3] = 2 mM ATP, read-out: LATS1_HTRF_2 mM ATP IC50
[4] = 10 uM ATP, read-out: LATS1_HTRF_10 uM ATP IC50

Structure (SMILES)	IC50 (Lats1 [1])	IC50 (Lats1 [1]; [3])	also measured
O=C(/N=c1\sccn1-c1cccnc1)c1c[nH]c2ncccc12 [T31]	3800 nM	–	–
Cc1ccc(-n2ccs/c2=N\C(=O)c2c[nH]c3ncccc23)cc1 [T21]	–	7.5 nM	–
Cc1cccc(-n2ccs/c2=N\C(=O)c2c[nH]c3ncccc23)c1 [T20]	–	155 nM	–
Cc1co/c(=N\C(=O)c2c[nH]c3ncccc23)n1Cc1ccccc1 [T77, (Z)—N-(3-benzyl-4-methyloxazol-2(3H)-ylidene)-1H-pyrrolo[2,3-b]pyridine-3-carboxamide]	–	107 nM	–
Cn1nccc1Cn1ccs/c1=N\C(=O)c1c[nH]c2ncccc12 [T58]	–	–	IC50 (Lats1 [2]; [4]): 128 nM
Cn1c(Cc2ccccc2)cs/c1=N\C(=O)c1c[nH]c2ncccc12 [T64]	–	7860 nM	–
N#Cc1ccccc1Cn1ccs/c1=N\C(=O)c1c[nH]c2ncccc12 [T42, (Z)—N-(3-(2-cyanobenzyl)thiazol-2(3H)-ylidene)-1H-pyrrolo[2,3-b]pyridine-3-carboxamide]	–	–	IC50 (Lats1 [2]; [4]): 12.9 nM
Cc1ccccc1-n1ccs/c1=N\C(=O)c1c[nH]c2ncccc12 [T19]	0.3 nM	–	–
Cn1cc(Cn2ccs/c2=N\C(=O)c2c[nH]c3ncccc23)cn1 [T59]	–	6060 nM	–
Cc1cn(Cc2ccccc2)/c(=N/C(=O)c2c[nH]c3ncccc23)s1 [T26]	–	–	IC50 (Lats1 [2]; [4]): 74.5 nM
CN(C)C(=O)c1cs/c(=N\C(=O)c2c[nH]c3ncccc23)n1-c1ccccc1Cl [T82]	20 nM	–	–
NCc1cccc(-n2ccs/c2=N\C(=O)c2c[nH]c3ncccc23)c1 [T61, (Z)—N-(3-(3-(aminomethyl)phenyl)thiazol-2(3H)-ylidene)-1H-pyrrolo[2,3-b]pyridine-3-carboxamide]	18.6 nM	–	–
CCOC(=O)c1cs/c(=N\C(=O)c2c[nH]c3ncccc23)n1Cc1ccccc1 [T79, Ethyl (2Z)-3-benzyl-2-(1H-pyrrolo[2,3-b]pyridine-3-carbonylimino)thiazole-4-carboxylate]	22 nM	–	–
O=Cc1ccc(Cn2ccs/c2=N\C(=O)c2c[nH]c3ncccc23)cc1 [T48, (Z)—N-(3-(4-formylbenzyl)thiazol-2(3H)-ylidene)-1H-pyrrolo[2,3-b]pyridine-3-carboxamide]	–	–	IC50 (Lats1 [2]): 800 nM
O=C(/N=c1\sccn1-c1ccccc1Br)c1c[nH]c2ncccc12 [T29]	20.5 nM	–	–
CNC(=O)c1cs/c(=N\C(=O)c2c[nH]c3ncccc23)n1-c1ccccc1Cl [T81]	–	3.67 nM	–
O=C(/N=c1\sccn1-c1cccc(Cl)c1)c1c[nH]c2ncccc12 [T66]	–	193 nM	–
O=C(/N=c1\sccn1-c1ccccc1Cl)c1c[nH]c2ncccc12 [T65]	–	0.1 nM	–
O=C(/N=c1\occ(CO)n1Cc1ccccc1)c1c[nH]c2ncccc12 [T78, (Z)—N-(3-benzyl-4-(hydroxymethyl)oxazol-2(3H)-ylidene)-1H-pyrrolo[2,3-b]pyridine-3-carboxamide]	–	1.6 nM	–
O=C(/N=c1\sccn1Cc1ccccn1)c1c[nH]c2ncccc12 [T54]	11000 nM	–	–
Cc1cs/c(=N\C(=O)c2c[nH]c3ncccc23)n1C1CCCCC1 [T74]	0.2 nM	–	–
N#Cc1cccc(Cn2ccs/c2=N\C(=O)c2c[nH]c3ncccc23)c1 [T44, (Z)—N-(3-(3-cyanobenzyl)thiazol-2(3H)-ylidene)-1H-pyrrolo[2,3-b]pyridine-3-carboxamide]	–	–	IC50 (Lats1 [2]; [4]): 260 nM
O=C(/N=c1\sccn1Cc1ccccc1)c1c[nH]c2ncc(Cl)cc12 [T06]	–	–	IC50 (Lats1 [2]; [4]): 92.2 nM
NC(=O)c1cccc(-n2ccs/c2=N\C(=O)c2c[nH]c3ncccc23)c1 [T60]	418 nM	–	–
O=C(/N=c1\sccn1-c1ccc(Cl)cc1)c1c[nH]c2ncccc12 [T27]	44.9 nM	–	–
O=C(/N=c1\sccn1CCc1ccccc1)c1c[nH]c2ncccc12 [T40]	–	–	IC50 (Lats1 [2]; [4]): 88.7 nM

Structure (SMILES)	IC50 (Lats1 [1])	IC50 (Lats1 [1]; [3])	also measured
O=C(/N=c1\sccn1C1CCCCC1)c1c[nH]c2ncccc12 [T57, (Z)—N-(3-cyclohexylthiazol-2(3H)-ylidene)-1H-pyrrolo[2,3-b]pyridine-3-carboxamide]	0.5 nM	–	–
O=C(/N=c1\sccn1-c1ccccn1)c1c[nH]c2ncccc12 [T30]	279 nM	–	–
CCc1cs/c(=N\C(=O)c2c[nH]c3ncccc23)n1Cc1ccccc1 [T68]	–	59.5 nM	–
O=C(O)c1cccc(Cn2ccs/c2=N\C(=O)c2c[nH]c3ncccc23)c1 [T34]	–	–	IC50 (Lats1 [2]; [4]): 6250 nM
COc1ccc(-n2ccs/c2=N\C(=O)c2c[nH]c3ncccc23)cc1 [T24]	112 nM	–	–
COC(=O)c1cccc(Cn2ccs/c2=N\C(=O)c2c[nH]c3ncccc23)c1 [T33]	–	–	IC50 (Lats1 [2]; [4]): 224 nM
Cc1ccc2c(C(=O)/N=c3\sccn3Cc3ccccc3)c[nH]c2n1 [T02]	–	–	IC50 (Lats1 [2]; [4]): 5840 nM
O=C(O)CCn1ccs/c1=N\C(=O)c1c[nH]c2ncccc12 [T51, (Z)-3-(2-((1H-pyrrolo[2,3-b]pyridine-3-carbonyl)imino)thiazol-3(2H)-yl)propanoic acid]	607 nM	–	–
O=C(/N=c1\sccn1C1CCNCC1)c1c[nH]c2ncccc12 [T75, (Z)—N-(3-(piperidin-4-yl)thiazol-2(3H)-ylidene)-1H-pyrrolo[2,3-b]pyridine-3-carboxamide hydrochloride]	92.5 nM	–	–
O=C(/N=c1\scc(C(F)(F)F)n1Cc1ccccc1)c1c[nH]c2ncccc12 [T71]	176 nM	–	–
O=C(/N=c1\sccn1Cc1cccnc1)c1c[nH]c2ncccc12 [T53, (Z)—N-(3-(pyridin-3-ylmethyl)thiazol-2(3H)-ylidene)-1H-pyrrolo[2,3-b]pyridine-3-carboxamide]	1100 nM	–	–
O=C(/N=c1\sccn1Cc1ccncc1)c1c[nH]c2ncccc12 [T52, (Z)—N-(3-(pyridin-4-ylmethyl)thiazol-2(3H)-ylidene)-1H-pyrrolo[2,3-b]pyridine-3-carboxamide]	4880 nM	–	–
Nc1cc(-n2ccs/c2=N\C(=O)c2c[nH]c3ncccc23)ccn1 [T35]	329 nM	–	–
O=C(/N=c1\scc(CO)n1Cc1ccccc1)c1c[nH]c2ncccc12 [T72, (Z)—N-(3-benzyl-4-(hydroxymethyl)thiazol-2(3H)-ylidene)-1H-pyrrolo[2,3-b]pyridine-3-carboxamide]	0.2 nM	–	–
O=C(/N=c1\sccn1-c1ccc(CO)cc1)c1c[nH]c2ncccc12 [T36]	60 nM	–	–
O=C(/N=c1\sccn1C1CCOCC1)c1c[nH]c2ncccc12 [T76]	2190 nM	–	–
CN(C)CCNC(=O)c1cs/c(=N\C(=O)c2c[nH]c3ncccc23)n1Cc1ccccc1 [T80, (Z)-3-Benzyl-N-[2-(dimethylamino)ethyl]-2-(1H-pyrrolo[2,3-b]pyridine-3-carbonylimino)thiazole-4-carboxamide]	82 nM	–	–
O=C(/N=c1\sccn1CC1CCOCC1)c1c[nH]c2ncccc12 [T56]	–	1020 nM	–
Cc1cs/c(=N\C(=O)c2c[nH]c3ncccc23)n1CC1CCCCC1 [T73]	–	0.8 nM	–
Cc1ccnc2[nH]cc(C(=O)/N=c3\sccn3Cc3ccccc3)c12 [T05]	–	3260 nM	–
NCc1ccccc1-n1ccs/c1=N\C(=O)c1c[nH]c2ncccc12 [T32]	43 nM	–	–
N#Cc1ccccc1-n1ccs/c1=N\C(=O)c1c[nH]c2ncccc12 [T28]	–	194 nM	–
COc1ccccc1-n1ccs/c1=N\C(=O)c1c[nH]c2ncccc12 [T22]	–	720 nM	–
O=C(/N=c1\sccn1-c1ccc2c(c1)CNCC2)c1c[nH]c2ncccc12 [T62, (Z)—N-(3-(1,2,3,4-tetrahydroisoquinolin-7-yl)thiazol-2(3H)-ylidene)-1H-pyrrolo[2,3-b]pyridine-3-carboxamide]	–	126 nM	–
COc1cccc(-n2ccs/c2=N\C(=O)c2c[nH]c3ncccc23)c1 [T23]	–	576 nM	–
CC(C)c1cs/c(=N\C(=O)c2c[nH]c3ncccc23)n1Cc1ccccc1 [T69]	168 nM	–	–
